PMC7024211, “Antifouling Napyradiomycins from Marine-Derived Actinomycetes Streptomyces aculeolatus” (Marine Drugs, 2020)
≈ marks a conversion by molar mass, not a printed value.

Key:
[1] = tested on: P. inhibens; experiment: Biofilm inhibition assay (crystal violet); assay type: cell-based, Phaeobacter inhibens; conditions: 31.25 µg/mL
Experimental: (§1) In a 96-well plate, biofilm grown cultures of M. hydrocarbonoclasticus and C. marina were incubated with napyradiomycins (1–12) at a concentration of 31.25 µg/mL. After discarding the media, biofilm inhibition was determined from OD600 measurements of crystal violet stained cells resuspended from the plate bottom with acetic acid.
(§2) Five marine bacterial species were used as models to assess antimicrofouling activity. The biofilm-forming marine bacteria Marinobacter hydrocarbonoclasticus DSM 8798 (ATCC 49840), Cobetia marina DSM 4741, Phaeobacter inhibens DSM 17,395, and Pseusooceanicola batsensis DSM 15,984 were obtained from DSMZ (Leibniz Institute DSMZ—German collection of Microorganisms and Cell Cultures) and Micrococcus luteus. Cultures were routinely grown in liquid marine broth (Carl Roth GmbH, Karlsruhe, Germany) with agitation (180 rpm) or on agar-supplemented marine broth, at 28 °C (M. hydrocarbonoclasticus and C. marina) or 30 °C (P. inhibens and P. batsensis). M. luteus was maintained in Brain Heart Infusion broth (BHI, Becton Dickinson, GmbH, Heidelberg, Germany) with agitation (180 rpm) or on agar-supplemented BHI, at 37 °C.
(§3) The antibiofilm activity of napyradiomycins (1–12) against the five marine bacterial species was assessed in 96-well polystyrene flat bottom microplates (Nunclon Delta Surface, Thermo Scientific, Roskilde, Denmark) as previously reported. For initial screening, bacterial overnight cultures were diluted to an optical density (OD600nm) value of 0.2 and incubated statically at 28 °C (M. hydrocarbonoclasticus, C. marina), 30 °C (P. inhibens, P. batsensis) or 37 °C (M. luteus) in the 96-well microplate in the presence or absence of 31.25 µg/mL of napyradiomycins, solubilized in DMSO. After 24 h (M. hydrocarbonoclasticus, C. marina) or 48 h (P. batsensis, P. inhibens, M. luteus) incubation, the OD600nm was determined. The planktonic cells and media were discarded, and the wells were washed twice with deionized water. The biofilm was fixed for 1 h at 60 °C and stained with crystal violet 0.06% for 10 min. The dye was discarded, and the wells were again washed twice with deionized water. The stained biofilm was solubilized with 30% acetic acid and the OD600nm was determined. […] The percentage of biofilm inhibition was calculated as the amount of biofilm relative to that of the bacterial species without added compounds (with the same amount of DMSO added). CuSO4 (5 μM), a potent antifouling agent used in antifouling paints, was used as reference.
All assays were performed in triplicate, and results are representative of the average and standard error of the mean (SEM). […]

[2] = tested on: M. hydrocarbonoclasticus; experiment: Biofilm inhibition assay (crystal violet); assay type: cell-based, Marinobacter hydrocarbonoclasticus; conditions: Marinobacter nauticus
Experimental: as §1, §2, §3
(§4) All assays were performed in triplicate, and results are representative of the average and standard error of the mean (SEM). Statistical analysis was performed in GraphPad Prism 8.0.2, using one-way ANOVA followed by a Dunnett’s multiple comparisons test against the control (species grown with the same amount of DMSO added).

[3] = tested on: M. hydrocarbonoclasticus; experiment: Bacterial growth inhibition assay (OD600nm); assay type: cell-based, Marinobacter hydrocarbonoclasticus; conditions: 31.25 µg/mL
Experimental: (§5) As a first screening approach, liquid cultures of M. hydrocarbonoclasticus, and C. marina in a 96-well format were analyzed for bacterial growth inhibition by percent decrease in OD600 after incubation with napyradiomycins (1–12) at 31.25 µg/mL.
as §2
(§6) The antibacterial activity of the napyradiomycins (1–12) was assessed in 96-well polystyrene flat bottom microplates (Nunclon Delta Surface, Thermo Scientific, Roskilde, Denmark) following previously reported procedures. For initial screening, bacterial overnight cultures were diluted to an optical density (OD600nm) of 0.2 and incubated statically at 28 °C (M. hydrocarbonoclasticus, C. marina), 30 °C (P. inhibens, P. batsensis) or 37 °C (M. luteus) in a 96-well microplate in the presence or absence of 31.25 µg/mL of the napyradiomycins, solubilized in DMSO. After 24 h (M. hydrocarbonoclasticus, C. marina) or 48 h (P. batsensis, P. inhibens, M. luteus) incubation, the OD600nm was determined (Molecular Devices, Spectra Max 190). […] The percentage of growth inhibition was calculated as the amount of growth relative to that of the bacterial species without added compounds (with the same amount of DMSO added). CuSO4 (5 μM), a potent antifouling agent used in antifouling paints, was used as reference.
as §4, with “8.0.2 (San Diego, CA, USA),” for “8.0.2,”

[4] = tested on: C. marina; experiment: Biofilm inhibition assay (crystal violet); assay type: cell-based, Cobetia marina; conditions: 31.25 µg/mL
Experimental: as §1, §2, §3, §4

[5] = tested on: P. batsensis; experiment: Bacterial growth inhibition assay (OD600nm); assay type: cell-based, Pseudooceanicola batsensis; conditions: 31.25 µg/mL
Experimental: as §5, §2, §6
as §4, with “8.0.2 (San Diego, CA, USA),” for “8.0.2,”

[6] = tested on: C. marina; experiment: Bacterial growth inhibition assay (OD600nm); assay type: cell-based, Cobetia marina; conditions: 31.25 µg/mL
From the text: as §2
as §6, with “For initial screening, bacterial overnight cultures were diluted to an optical density (OD600nm) of 0.2 and incubated statically at 28 °C (M. hydrocarbonoclasticus, C. marina), 30 °C (P. inhibens, P. batsensis) or 37 °C (M. luteus) in a 96-well microplate in the presence or absence of 31.25 µg/mL of the napyradiomycins, solubilized in DMSO.” left out
as §4, with “8.0.2 (San Diego, CA, USA),” for “8.0.2,”

[7] = tested on: P. batsensis; experiment: Biofilm inhibition assay (crystal violet); assay type: cell-based, Pseudooceanicola batsensis; conditions: 31.25 µg/mL
Experimental: as §1, §2, §3, §4

[8] = tested on: M. luteus; experiment: Biofilm inhibition assay (crystal violet); assay type: cell-based, Micrococcus luteus; conditions: 31.25 µg/mL
Experimental: as §1, §2, §3, §4

[9] = tested on: M. luteus; experiment: Bacterial growth inhibition assay (OD600nm); assay type: cell-based, Micrococcus luteus; conditions: 31.25 µg/mL
From the text: as §2
as §6, with “For initial screening, bacterial overnight cultures were diluted to an optical density (OD600nm) of 0.2 and incubated statically at 28 °C (M. hydrocarbonoclasticus, C. marina), 30 °C (P. inhibens, P. batsensis) or 37 °C (M. luteus) in a 96-well microplate in the presence or absence of 31.25 µg/mL of the napyradiomycins, solubilized in DMSO.” left out
as §4, with “8.0.2 (San Diego, CA, USA),” for “8.0.2,”

[10] = Mussel plantigrade larvae settlement, 15 h acute exposure assay; assay type: in vivo; conditions: Mytilus galloprovincialis (mussel, plantigrade larvae), in vivo, no mortality at highest tested concentration 12 µg/mL
Experimental: (§7) Mussel (M. galloprovincialis) adhesive larvae (plantigrades) were used to assess in vivo the antifouling activity of napyradiomycins (1–12) towards macrofouling. Juvenile mussel aggregates were collected at the intertidal rocky shore during low spring tides, at Memória beach, Matosinhos, Portugal (41°13′59″ N; 8°43′28″ W). At the laboratory, immediately before the bioassays, mussel plantigrade larvae were screened and isolated from the juvenile aggregates using a binocular microscope (Olympus SZX2-ILLT, Hamburg, Germany) and washed with filtered seawater to remove organic debris. Only competent plantigrade larvae (those showing foot exploratory behavior) were selected and used in the exposure bioassays following previously validated procedures. Plantigrades were exposed in 24-well polystyrene plates for 15 h in the darkness at 18 °C. DMSO was used as solvent for crude extracts, fractions and pure compounds stock and working solutions. Working solutions were prepared by successive dilutions of stock solutions in DMSO and then diluted in filtered seawater to obtain the test solutions. DMSO concentration in test solutions was always 0.1%. Four well replicates were used per condition with five larvae per well. Two negative controls, one with ultra-pure water and the other with DMSO 0.1% were included in all bioassays, as well as a positive control with 5 μM CuSO4 (a potent antifouling agent). Anti-settlement bioactivity was determined by the presence/absence of fixed byssal threads produced by each individual larvae for all the conditions tested. […] Chi-square Pearsons goodness-of-fit test was applied to data in order to determine EC50. Significance was considered at p < 0.01 for all analyses, and 95% lower and upper confidence limits [95% LCL; UCL] were presented. Therapeutic ratio (LC50/EC50) was used to evaluate the effectiveness vs. toxicity of compounds [19, 21].

[11] = tested on: M. galloprovincialis plantigrade larvae; experiment: as above; assay type: in vivo; conditions: Mytilus galloprovincialis, 15 h, 95% LCL, UCL in brackets, read-out: EC50 [Conf. limits] larval settlement
Experimental: as §7

[12] = tested on: P. inhibens; experiment: Bacterial growth inhibition assay (OD600nm); assay type: cell-based, Phaeobacter inhibens; conditions: 31.25 µg/mL
Experimental: as §5
Five marine bacterial species were used as models to assess antimicrofouling activity. The biofilm-forming marine bacteria Marinobacter hydrocarbonoclasticus DSM 8798 (ATCC 49840), Cobetia marina DSM 4741, Phaeobacter inhibens DSM 17,395, and Pseusooceanicola batsensis DSM 15,984 were obtained from DSMZ (Leibniz Institute DSMZ—German collection of Microorganisms and Cell Cultures) and Micrococcus luteus. […]
The antibacterial activity of the napyradiomycins (1–12) was assessed in 96-well polystyrene flat bottom microplates (Nunclon Delta Surface, Thermo Scientific, Roskilde, Denmark) following previously reported procedures. […] After 24 h (M. hydrocarbonoclasticus, C. marina) or 48 h (P. batsensis, P. inhibens, M. luteus) incubation, the OD600nm was determined (Molecular Devices, Spectra Max 190). […] The percentage of growth inhibition was calculated as the amount of growth relative to that of the bacterial species without added compounds (with the same amount of DMSO added). […]

[13] = tested on: M. edulis; set-up: method as in doi:10.1016/S0044-8486(97)00209-3; conditions: against M. edulis ref 62; cited from earlier work

Molecule | % Biofilm Inhibition ± SEM P. inhibens [1] | inhibition at 0.98 µg/mL ([2]; 0.98 µg/mL, read-out: % inhibition of biofilm formation M. hydro.) [%] | inhibition at 1.95 µg/mL ([2]; 1.95 µg/mL, read-out: % inhibition of biofilm formation M. hydro.) [%] | inhibition at 15.6 µg/mL ([2]; 15.6 µg/mL, read-out: % inhibition of biofilm formation M. hydro.) [%] | inhibition at 31.25 µg/mL ([2]; 31.25 µg/mL, read-out: % Biofilm Inhibition ± SEM M. hydrocarbonoclasticus) [%] | % growth inhibition M. hydrocarbonoclasticus [3] | % Biofilm Inhibition ± SEM C. marina [4] | % growth inhibition P. batsensis [5] | % growth inhibition C. marina [6] | % Biofilm Inhibition ± SEM P. batsensis [7] | % Biofilm Inhibition ± SEM M. luteus [8] | % growth inhibition M. luteus [9] | LC50 at 15 h [10] [µg/mL] | EC50 [11] [µg/mL] | % growth inhibition P. inhibens [12] | EC50 [13] [µg/mL]
CC(=CCCC(C)=CCC12OC(C)(C)C(Cl)CC1(Cl)C(=O)c1c(O)cc(O)cc1C2=O)CO (stereo not shown) [Napyradiomycin 2, 18-hydroxynapyradiomycin A1] | N.I. | 24.6 ± 9.8 | 56.5 ± 5.7 | 56.6 ± 0.9 | 60.2 ± 5.7 | did not inhibit growth | N.I. | did not inhibit growth | did not inhibit growth | N.I. | N.I. | did not inhibit growth | > 12 | 2 (≈ 4.02 µM) | did not inhibit growth | –
ivermectin | – | – | – | – | – | – | – | – | – | – | – | – | – | – | – | 0.4
